In ChEMBL document CHEMBL5634150, “Design, synthesis and biological evaluation of novel dihydroquinolin-4(1H)-one derivatives as novel tubulin polymerization inhibitors” (Eur J Med Chem, 2023):
In brackets after ≈: the same amount, converted by molar mass. Activity calls are given as the source filed them. The calls are words filed in the database; no cut-off is given here.

Key:
[1] = Metabolic stability in mouse liver microsomes assessed as half life at 100 uM measure upto 60 mins in presence of NADPH by LC-MS/MS analysis; assay type: ADME, Microsome
[2] = molecular target: T1, Tubulin (Homo sapiens) (UniProt P68371+Q9H4B7+P0DPH7+P68366+Q13509+Q71U36+P04350+Q3ZCM7+P07437+P68363+Q9BQE3+Q6PEY2+Q13885+Q9BVA1+Q9BUF5); assay: Inhibition of tubulin polymerization in human K562 cells assessed as microtubule destruction network at 1.5 to 6 uM incubated for 48 hrs by immunofluorescence staining based inverted microscopic analysis; assay type: cell-based; settings: dose 1.5-6 µM
[3] = system: A549; assay: Antiproliferative activity against human A549 cells assessed as inhibition of cell growth at 1 uM measured after 72 hrs by MTT assay relative to control; assay type: functional
[4] = system: MDA-MB-231; assay: Inhibition of cell invasion in human MDA-MB-231 cells at 1.5 to 6 nM measured after 48 hrs by crystal violet staining microscopy based transwell assay; assay type: functional; settings: dose 1.5-6 nM
[5] = system: Cell membrane; assay: Induction of mitochondrial membrane depolarization in human K562 cells assessed as decrease in red fluorescence intensity at incubated for 48 hrs by JC-1 staining based flow cytometry; assay type: cell membranes; settings: dose 1.5-6 nM
[6] = molecular target: T1, Tubulin (Homo sapiens); assay: Inhibition of [3H]colchicine binding to tubulin (unknown origin) at 5 uM incubated for 2 hrs by scintillation counter analysis relative to control; assay type: protein-complex assay
[7] = Toxicity in mouse assessed as effect on spleen at 20 mg/kg by H and E staining based microscopic analysis; assay type: organism-based; settings: in vivo
[8] = system: K562; assay: Induction of apoptosis in human K562 cells assessed as downregulation of bcl-2 level at upto 6 nM measured after 48 hrs by Western blot analysis; assay type: functional, cell-based
[9] = system: H22; assay: Antitumor activity against mouse H22 cells allografted in mouse model assessed as inhibition of tumor weight administered as iv dose for once daily for 3 weeks; assay type: functional, organism-based; settings: dose 10-20 mg/kg
[10] = Metabolic stability in mouse liver microsomes assessed as intrinsic clearance at 100 uM measure upto 60 mins in presence of NADPH by LC-MS/MS analysis; assay type: ADME, Microsome; settings: 1 h
[11] = molecular target: Tubulin; assay: (§1) Inhibition of tubulin polymerization (unknown origin) preincubated for 5 mins and measured every 5 mins for 60 mins by absorbance based analysis; assay type: protein-complex assay, Homo sapiens
[12] = molecular target: T1, Tubulin (Homo sapiens); assay: as §1; assay type: protein-complex assay; settings: dose 5-10 µM, time 65.0 min
[13] = Toxicity in mouse assessed as effect on body weight loss at 20 mg/kg, iv administered once daily for 3 weeks; assay type: organism-based; settings: in vivo, 504 h
[14] = system: H22; assay: Antitumor activity against mouse H22 cells allografted in mouse model assessed as inhibition of tumor volume administered as iv dose for once daily for 3 weeks; assay type: functional, organism-based; settings: dose 10-20 mg/kg
[15] = Toxicity in mouse assessed as effect on lung at 20 mg/kg by H and E staining based microscopic analysis; assay type: organism-based; settings: in vivo
[16] = system: K562; assay: Antiproliferative activity against human K562 cells assessed as inhibition of cell growth measured after 72 hrs by MTT assay; assay type: functional, cell-based; settings: K562, 72 h
[17] = system: HUVEC; assay: Anti-angiogenesis activity in HUVEC cells at 1.5 to 6 nM measured after 24 hrs by wound healing assay; assay type: functional, cell-based; settings: Homo sapiens, dose 1.5-6 nM
[18] = system: H22; assay: Antitumor activity against mouse H22 cells allografted in mouse model assessed as tumor growth inhibition at 20 mg/kg,iv administered once daily for 3 weeks relative to control; assay type: functional; settings: H22, 504 h, read-out: TGI
[19] = system: A549/TR; assay: Antiproliferative activity against human A549/Taxol cells assessed as inhibition of cell growth measured after 72 hrs by MTT assay; assay type: functional, cell-based
[20] = system: K562; assay: Induction of cell cycle arrest in human K562 cells assessed as accumulation of cells at G2/M phase at 6 nM incubated overnight by PI staining based flow cytometry analysis (reference value: 5.57%); assay type: functional
[21] = Toxicity in mouse assessed as effect on kidney at 20 mg/kg by H and E staining based microscopic analysis; assay type: organism-based; settings: in vivo
[22] = system: K562; assay: Induction of cell cycle arrest in human K562 cells assessed as accumulation of cells at G1 phase at 6 nM incubated overnight by PI staining based flow cytometry analysis (reference value: 78.45%); assay type: functional
[23] = system: K562; assay: Induction of apoptosis in human K562 cells at 1.5 nM measured after 48 hrs by Annexin V-FITC/7-AAD staining based flow cytometric analysis relative to control; assay type: functional
[24] = Metabolic stability in mouse plasma assessed as half life at 1 uM and measured upto 3 hrs by LC-MS/MS analysis; assay type: ADME, cell-free
[25] = system: K562; assay: Induction of apoptosis in human K562 cells at 6 nM measured after 48 hrs by Annexin V-FITC/7-AAD staining based flow cytometric analysis relative to control; assay type: functional
[26] = system: K562; assay: Induction of apoptosis in human K562 cells assessed as increase in bax level at upto 6 nM measured after 48 hrs by Western blot analysis; assay type: functional, cell-based
[27] = system: K562; assay: Induction of cell cycle arrest in human K562 cells assessed as accumulation of cells at S phase at 1.5 nM incubated overnight by PI staining based flow cytometry analysis (reference value: 15.98%); assay type: functional
[28] = Toxicity in mouse assessed as effect on heart at 20 mg/kg by H and E staining based microscopic analysis; assay type: organism-based; settings: in vivo
[29] = Antiproliferative activity against human HFL1 cells assessed as inhibition of cell growth measured after 72 hrs by MTT assay; assay type: toxicity, cell-based
[30] = system: K562; assay: Induction of apoptosis in human K562 cells assessed as increase in bad level at upto 6 nM measured after 48 hrs by Western blot analysis; assay type: functional, cell-based
[31] = Metabolic stability in mouse plasma assessed as compound remaining at 1 uM and measured at 3 hrs by LC-MS/MS analysis; assay type: ADME, cell-free; settings: read-out: Stability
[32] = system: K562; assay: Induction of cell cycle arrest in human K562 cells assessed as accumulation of cells at G1 phase at 1.5 nM incubated overnight by PI staining based flow cytometry analysis (reference value: 78.45%); assay type: functional
[33] = system: A549; assay: Antiproliferative activity against human A549 cells assessed as inhibition of cell growth measured after 72 hrs by MTT assay; assay type: functional, cell-based; settings: A549, 72 h
[34] = system: HUVEC; assay: Anti-angiogenesis activity in HUVEC cells assessed as disruption of capillary tube structure at 1.5 to 6 nM measured after 6 hrs by contrast microscopy based analysis; assay type: functional, cell-based; settings: Homo sapiens, dose 1.5-6 nM
[35] = system: K562; assay: Induction of apoptosis in human K562 cells assessed as nuclear fragmentation at 1.5 to 6 nM incubated for 24 hrs by Hoechst 33342 staining based fluorescence microscopic analysis; assay type: functional, cell-based; settings: dose 1.5-6 nM
[36] = system: HepG2; assay: Antiproliferative activity against human HepG2 cells assessed as inhibition of cell growth measured after 72 hrs by MTT assay; assay type: functional, cell-based; settings: HepG2, 72 h
[37] = system: MDA-MB-231; assay: Antiproliferative activity against human MDA-MB-231 cells assessed as inhibition of cell growth measured after 72 hrs by MTT assay; assay type: functional, cell-based; settings: MDA-MB-231, 72 h
[38] = Aqueous solubility of the compound by HPLC analysis; assay type: physicochemical; settings: aqueous (not further specified)
[39] = system: Cell membrane; assay: Induction of mitochondrial membrane depolarization in human K562 cells assessed as increase in green fluorescence intensity at incubated for 48 hrs by JC-1 staining based flow cytometry; assay type: cell membranes; settings: dose 1.5-6 nM
[40] = system: A549; assay: Antiproliferative activity against human A549 cells assessed as inhibition of cell growth at 0.1 uM measured after 72 hrs by MTT assay relative to control; assay type: functional

half-life at 100 µM [1]: 10.7 min | inhibition [2]: Active | Activity [5]: Dose-Dependent Effect | inhibition [6]: 75.9% | CLH [10]: 129 µL/min/mg | IC50 [11]: 3.06 µM | inhibition [12]: Dose-Dependent Effect | IC50 [16]: 0.003 µM | IC50 [19]: 0.043 µM | half-life at 1 µM [24]: > 180 min | remaining at 3 h, 1 µM [31]: 105% | IC50 [33]: 0.008 µM | IC50 [36]: 0.009 µM | IC50 [37]: 0.024 µM | solubility [38]: 6.68 µg/mL (≈ 17.6 µM) | Activity [39]: Dose-Dependent Effect
SMILES: CCn1ccc2cc(N3CCC(=O)c4c3cc(OC)c(OC)c4OC)ccc21
inhibition at 1 µM [3]: 79% | inhibition [4]: Active | Activity [7]: Non-Toxic | Activity [8]: Active | Activity [9]: Dose-Dependent Effect | Activity [13]: Non-Toxic | Activity [14]: Dose-Dependent Effect | Activity [15]: Non-Toxic | Activity [17]: Active | inhibition in vivo at 20 mg/kg [18]: 63.3% | Activity [20]: 22% | Activity [21]: Non-Toxic | Activity [22]: 47.52% | Activity [23]: 11.44% | Activity [25]: 45.82% | Activity [26]: Active | Activity [27]: 22.58% | Activity [28]: Non-Toxic | IC50 at 72 h [29]: 0.062 µM | Activity [30]: Active | Activity [32]: 66.8% | Activity [34]: Active | Activity [35]: Active | inhibition at 0.1 µM [40]: 78.3%
